Assay results reported in PMC4669759 (Cell Death & Disease, 2015).

Key:
OPM-2 cells = assay: Navitoclax / A-1210477 combination cell viability, OPM-2 cells; assay type: cell-based; settings: OPM-2, 48 h
Protocol: (§1) Figure 6 A-1210477 synergizes with navitoclax to kill hematological and solid tumor cell lines. BxPC-3, EJ-1, H23, and OPM-2 cells were treated with increasing concentrations of navitoclax in the presence or absence of increasing concentrations of A-1210477 for 48 h before assessing cell viability. All data points represent the means of triplicate experiments, with error bars indicating the S.E.M. TEXT PRINTED IN THE PICTURE: A-1210477 + navitoclax: Bliss sum (BxPC-3): 716; Bliss sum (EJ-1): 464; Bliss sum (H23): 76; Bliss sum (OPM-2): 946 DOUBTS OF THE COPYIST ABOUT THIS PICTURE: The Bliss sums apply to the combination of A-1210477 and navitoclax. The picture prints the two names separately (legend heading and axis title), not as one joined label.
(§2) Adherent cell lines were seeded at 50 000 cells per well in 96-well plates and treated for 48 h with compounds diluted in half-log steps starting at 30 μM and ending at 0.001 μM. Multiple myeloma cell lines were seeded at 15 000–20 000 cells per well and treated similarly. Effects on proliferation and viability were determined using CellTiter-Glo reagent from Promega (Madison, WI, USA) according to the manufacturer's instructions. IC50 values were determined by non-linear regression analysis of the concentration response data.

BCL-XL = BCL-XL (Homo sapiens, UniProt Q07817); assay: TR-FRET binding affinity assay, BCL-XL
Protocol: TR-FRET-binding affinity assays were performed for BCL-2, BCL-XL, and MCL-1 in 4.52 mM monobasic potassium phosphate, 15.48 mM dibasic potassium phosphate, 1 mM sodium EDTA, 0.05% Pluronic F-68 detergent, 50 mM sodium chloride, and 1 mM DTT (pH 7.5) as described previously for BCL-XL.[6] For MCL-1 assays, GST-tagged MCL-1 (1 nM) was mixed with 100 nM f-Bak, 1 nM Tb-labeled anti-GST antibody, and compound at room temperature (RT) for 60 min. Fluorescence was measured on an Envision plate reader (Perkin-Elmer, Waltham, MA, USA) using a 340/35 nm excitation filter and 520/525 (f-Bak) and 495/510 nm (Tb-labeled anti-GST antibody) emission filters.

MCL-1 = MCL-1 (Homo sapiens, UniProt Q07820); assay: MCL-1 protein levels by immunoblotting in HCC-1806 cells; assay type: cell-based; parameters: endogenous in cells; host or cells: HCC-1806; settings: immunoblot
Protocol: Figure 1 MCL-1 levels are elevated in cancer cells after treatment with MCL-1-binding small molecules. (a) H929 multiple myeloma cells were treated for 4 h with 10 μM A-1210477 before immunopreciptating MCL-1. […] A control H929 lysate was run in lane 1, and an immunoprecipitation with a non-specific antibody (Ig) was run in lane 2. The positions of molecular weight markers (specified in kiloDaltons) are indicated on the left. (b) HCC-1806 breast cancer cells were incubated with increasing concentrations of A-1210477 (0.1, 0.5, 1, 5, 10, 15, or 20 μM) or bortezomib (2, 10, or 50 nM) for 8 h before assessing MCL-1 and NOXA levels by immunoblotting. β-Actin was probed as a protein loading control. The lower graph depicts reverse transcriptase-PCR quantification of MCL1 mRNA from HCC-1806 cells treated for 8 h with similar concentrations of A-1210477. (c) HCC-1806 cells were incubated with increasing concentrations (0.1, 0.5, 1, 5, 10, and 20 μM) of A-954248, A-962653, or A-1248767 for 24 h before assessing MCL-1 and BCL-XL levels by immunoblotting. β-Actin was probed as a protein loading control
Cells were scraped into cold PBS, pelleted, and then resuspended in 100–200 μl ice-cold insect cell lysis buffer supplemented with protease inhibitors (BD Biosciences Pharmingen, San Diego, CA, USA). Cells were lysed by sonication, and the debris was cleared in a microcentrifuge. […]

MCL-1–BIM complexes = molecular target: T1, MCL-1–BIM complexes (Homo sapiens, UniProt Q07820); assay: Co-immunoprecipitation–electrochemiluminescent ELISA of MCL-1–BIM complexes in H929 cells; assay type: cell-based; settings: 4 h
T1 construct: endogenous in cells; host or cells: H929
Protocol: (a) H929 cells were treated with increasing concentrations of A-1210477 for 4 h. […] All data represent the mean of triplicate experiments, with error bars indicating the S.D. (b) Quantitative measurement of protein–protein interactions using a luciferase-based mammalian two-hybrid assay. […] All data represent the means of triplicate experiments, with error bars indicating the S.Ds.
After compound treatments, cells were lysed in buffer containing 1% CHAPS, 10 mM HEPES, and 150 mM NaCl with protease inhibitor cocktail (Roche, Indianapolis, IN, USA). In all, 100 μg of cell lysate was added to each well of a Meso Scale Discovery (Rockville, MD, USA) 96-well plate precoated with biotinylated anti-MCL-1 antibody (clone RC13) from Thermo Fisher Scientific. MCL-1-BIM complexes were detected with rabbit anti-BIM antibody (clone Y36) from Abcam, followed by Sulfo-tagged anti-rabbit antibody (Meso Scale Discovery; cat no. R32AB-5) and Meso Scale Discovery reading buffer with surfactant (cat. no. R92TC-2) according to the manufacturer's recommendations. Each step was followed by washing three times with PBS-T (PBS+0.1% Tween-20).

H2110 cells = assay: Cell viability, H2110 cells; assay type: cell-based, human
Protocol: Figure 5 A-1210477 kills MCL-1-dependent NSCLC cancer cell lines. NSCLC cell lines (a) H2110 or (c) H23 were transfected with a construct expressing the MCL1 CDS tagged with a Flag epitope or empty control vector. These cells were subsequently transfected with siRNAs targeting the MCL1 CDS, the MCL1 3′ UTRa or UTRb, or a scrambled control sequence. Cell viability was assessed 72 h later with MCL-1 and Flag immunoblots performed in parallel. (b) H2110 or (d) H23 cells were treated with increasing concentrations of A-1210477 for 72 h before assessing cell viability.
as §2

H23 cells = assay: Navitoclax / A-1210477 combination cell viability, H23 cells; assay type: cell-based, human; settings: H23, 48 h
Protocol: as §1, §2

MCL-1, sequence (Q07820 whole entry): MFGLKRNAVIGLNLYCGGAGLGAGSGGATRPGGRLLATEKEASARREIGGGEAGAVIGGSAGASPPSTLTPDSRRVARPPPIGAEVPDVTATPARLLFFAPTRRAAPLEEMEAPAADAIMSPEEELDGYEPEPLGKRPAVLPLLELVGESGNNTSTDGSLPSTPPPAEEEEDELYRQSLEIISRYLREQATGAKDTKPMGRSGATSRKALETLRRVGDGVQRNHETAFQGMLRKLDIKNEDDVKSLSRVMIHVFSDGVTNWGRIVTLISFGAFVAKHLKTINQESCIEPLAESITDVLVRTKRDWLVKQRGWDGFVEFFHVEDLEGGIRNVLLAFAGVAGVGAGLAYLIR
T1 sequence (Q07820 whole entry, one chain of several): as the sequence (Q07820 whole entry) above
BCL-XL, sequence (Q07817 whole entry): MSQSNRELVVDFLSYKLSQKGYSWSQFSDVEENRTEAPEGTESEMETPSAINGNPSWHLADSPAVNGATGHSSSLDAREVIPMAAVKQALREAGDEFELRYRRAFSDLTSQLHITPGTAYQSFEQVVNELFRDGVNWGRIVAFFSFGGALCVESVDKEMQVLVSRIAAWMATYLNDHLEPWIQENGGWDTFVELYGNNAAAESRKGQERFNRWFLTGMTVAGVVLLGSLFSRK

With Cc1nn(C)c(COc2ccc(N3CCN(S(=O)(=O)N(C)C)CC3)cc2)c1-c1cccc2c(CCCOc3cccc4ccccc34)c(C(=O)O)n(CCN3CCOCC3)c12 [A-1210477] the potentiation of navitoclax (OPM-2 cells) was “substantially shifted the dose–response curve of navitoclax”, the Ki (BCL-XL) was over 0.66 µM and the “effect on MCL-1 protein levels” value (MCL-1; 0.1-20 μM) was “triggered MCL-1 elevation”. For the same compound, the “lowest concentration at which increases in MCL-1 protein could be observed” value (MCL-1; 8 h or 24 h) was 0.5 µM, the “IC50, reduction of BIM co-immunoprecipitated with MCL-1” value (MCL-1–BIM complexes) was “low-μM range” and the IC50 (H2110 cells; H2110) was under 10 µM. The EC50 (H2110 cells; H2110, 72 h) was 5.3 µM and the potentiation of navitoclax (H23 cells) was “substantially shifted the dose–response curve of navitoclax”.
